We go through one compound from patent US9649313B2, “Use of ITK inhibitors for the treatment of cancer” (The University of North Carolina at Chapel Hill, priority 2012, dated 2017).

Experiment [1] has as its system primary melanoma in the PTEN/BRAF GEMM. Kind of experiment: PTEN/BRAF GEMM primary melanoma model. In kind it is in vivo, mice. An excerpt: FIG. 7A-7B Effects of BI 10N inhibitor on growth of primary melanoma in the PTEN/BRAF GEMM. A primary melanoma tumor from the PTEN/BRAF mouse GEMM untreated with inhibitors stained with acid fast red for ITK using ITK antibody (Abeam cat#ab32113) (data not shown). A PTEN/BRAF mouse model was used for these in vivo studies. The mice were painted with 4HT (4-hydroxy-tamoxifen) at the base of their tails and within about 4 weeks, 4 mm×4 mm melanomas were typically present in each mouse. The animals were then divided into treatment or no treatment groups. FIG. 7A) Animals were treated as described in panel B, then placed on BI 10N BI 10N at 15 MPK or not treated. Mice were followed for 7 weeks and their tumors were measured once a week to assess tumor volume as described in the Materials and Methods. FIG. 7B) Effect of BI 10N on tumor growth (mean and standard error of mean) in the PTEN/BRAF GEMM. […] The effects of AZD6244 and PLX4032 on tumor growth are also shown. Samples sizes are indicated in parentheses.
All animal studies were approved by UNC-CH Institute for Animal Care and Use Committee prior to study start. PTEN/BRAF mice were bred in house, and tumors were induced with 1 ul of 20 mM Tamoxafen at 4 weeks near the base of the tail as previously described (Dankort et al., 2009 Nat Genet 41(5): 544-52). […]

Experiment [2] deals with A375 (ITKINT) melanoma cell line. Kind of experiment: proliferation assay (cell counts). In kind it is cell-based, Human. As to conditions: 50 nM. The method, then: (§1) FIG. 5A-5C. Effects of BI 10N inhibitor on proliferation and motility of melanoma cells. FIG. 5A) Cell motility assays were performed as described in FIG. 4A-4E; however, the inhibitor BI 10N was added to the media to decrease ITK kinase activity in parental cell lines instead of using the shRNA ITK knockdown cell lines. BI 10N was added to the media 24 hours prior to the start of the motility assay and the VivaView camera system was used to image cellular motility of the melanoma cells as described previously. FIG. 5B) The proliferation assays were completed as described in FIG. 4A-4E, substituting the BI 10N compound for the shRNA. Cells were trypsinized and counted using the Invitrogen Countess. Fifty thousand cells were placed into each well of a 6 well plate and BI 10N was added to the indicated concentrations. The cells were counted with the Invitrogen Countess at 3, 5, and 6 or 7 days after plating to assess the proliferation rates of the different cell lines in the presence of BI 10N. FIG. 5C) Both ITKHI (RPMI 8322) and ITKLO (PMWK) melanoma cell lines were grown in the presence of BI 10N (10-200 nM) in soft agar. In 24-well cell culture plates 2,500 cells per well were added to a 1.4% agarose solution. The agarose and cell solution was then poured on top of a solidified base agar. The cells were incubated at 37° C. for three to four weeks to ensure adequate growth before analysis. FIG. 5D) Cell cycle analysis of PMWK, VMM 39, and RPMI 8322 cells that have been treated with increasing concentrations of BI 10N. Following 3 days of BI 10N treatment, the cells were incubated with EdU for 3 hours and were subsequently assessed for 5-ethynyl-2′-deoxyuridine (EdU) incorporation rate and DNA content with FxCycle Violet. […]
(§2) Human melanoma cell lines were plated onto 10 cm^2 6 well dishes at a density of 50,000 cells per well. […] Five hundred […] of media was added to the cell suspension, the cells were removed from the well and then counted using the Countess® Automated Cell Counter from Life Technologies (cat #C10227). […]

Experiment [3] concerns SKMEL 131 (ITKLO) melanoma cell line. Kind of experiment: proliferation assay (cell counts). In kind it is cell-based, Human. As to conditions: inhibitor as high as 150 nM. How it is done: as §1, §2
For experiment [4], the target named is T1, phosphorylated (active) form of ITK in RPMI 8322 cells (Homo sapiens, UniProt Q08881).
T1 construct: endogenous in cells; host or cells: RPMI 8322 human melanoma cells
As to the kind of experiment: two-dimensional electrophoresis and western blot of ITK isoforms. In kind it is cell-based. As to conditions: RPMI 8322 cells treated for 3 days. The text has this:
Therefore, alternatively, we performed two-dimensional electrophoresis on whole cell lysates obtained from RPMI 8322 cells that had been treated with phosphatase or different concentrations of BI 10N for 3 days prior to harvest followed by western blot analysis using the ITK antibody. In untreated RPMI 8322 cells, two charge isoforms that migrated with the appropriate weight for ITK were identified by immunoblot analysis. […] These observations indicate that the formation of the phosphorylated (active) form of ITK is inhibited in the presence of ≧25 nM of BI 10N (data not shown).
(In general: Immunoblotting shows a protein as a band on a membrane.)

The subject of experiment [5] is A375 (ITKINT) melanoma cell line. Kind of experiment: single cell motility assay. In kind it is cell-based, Human. The method, then: (§3) FIG. 5A-5C. Effects of BI 10N inhibitor on proliferation and motility of melanoma cells. FIG. 5A) Cell motility assays were performed as described in FIG. 4A-4E; however, the inhibitor BI 10N was added to the media to decrease ITK kinase activity in parental cell lines instead of using the shRNA ITK knockdown cell lines. BI 10N was added to the media 24 hours prior to the start of the motility assay and the VivaView camera system was used to image cellular motility of the melanoma cells as described previously. FIG. 5B) The proliferation assays were completed as described in FIG. 4A-4E, substituting the BI 10N compound for the shRNA. Cells were trypsinized and counted using the Invitrogen Countess. Fifty thousand cells were placed into each well of a 6 well plate and BI 10N was added to the indicated concentrations. The cells were counted with the Invitrogen Countess at 3, 5, and 6 or 7 days after plating to assess the proliferation rates of the different cell lines in the presence of BI 10N. FIG. 5C) Both ITKHI (RPMI 8322) and ITKLO (PMWK) melanoma cell lines were grown in the presence of BI 10N (10-200 nM) in soft agar. In 24-well cell culture plates 2,500 cells per well were added to a 1.4% agarose solution. The agarose and cell solution was then poured on top of a solidified base agar. The cells were incubated at 37° C. for three to four weeks to ensure adequate growth before analysis. FIG. 5D) Cell cycle analysis of PMWK, VMM 39, and RPMI 8322 cells that have been treated with increasing concentrations of BI 10N. Following 3 days of BI 10N treatment, the cells were incubated with EdU for 3 hours and were subsequently assessed for 5-ethynyl-2′-deoxyuridine (EdU) incorporation rate and DNA content with FxCycle Violet. Shown in this panel are the percentages of cells in G0/G1 (low DNA and EdU content), S (high EdU and low-to-medium DNA content), and G2/M (Low EdU and high DNA content)
(§4) Single cell tracking was performed as described (Williams et al., 2012 Circ Res 111(1):56-65). Briefly melanoma cells were plated on 5 μg/cm2 collagen coated MatTek dishes (MatTek Corp., Ashland, Mass. part #P35G-1.5-10-C) and allowed to attach for 24 hours in the presence of either DMSO (1:1000) or BI 10N in DMSO. Cells were monitored for 16 hours using the Olympus VivaView live cell imaging microscope system. Images were taken at a magnification of 10× and were converted to stacks using Image J software. Single-cells were tracked using Image J manual tracking software and velocities were obtained.

The test system of experiment [6] is SKMEL 131 (ITKLO) melanoma cell line. Kind of experiment: single cell motility assay. Type of experiment: cell-based, Human. How it is done: as §3, §4
In experiment [7] the test system is SKMEL 103 (ITKINT) melanoma cell line. Kind of experiment: single cell motility assay. Type of experiment: cell-based, Human. The method, then:
as §3, §4

Experiment [8] deals with SKMEL 153 (ITKHI) melanoma cell line. Kind of experiment: single cell motility assay. In kind it is cell-based, Human. As to conditions: 10-25 nM. The method, then: as §3, §4

T1 sequence (Q08881 whole entry): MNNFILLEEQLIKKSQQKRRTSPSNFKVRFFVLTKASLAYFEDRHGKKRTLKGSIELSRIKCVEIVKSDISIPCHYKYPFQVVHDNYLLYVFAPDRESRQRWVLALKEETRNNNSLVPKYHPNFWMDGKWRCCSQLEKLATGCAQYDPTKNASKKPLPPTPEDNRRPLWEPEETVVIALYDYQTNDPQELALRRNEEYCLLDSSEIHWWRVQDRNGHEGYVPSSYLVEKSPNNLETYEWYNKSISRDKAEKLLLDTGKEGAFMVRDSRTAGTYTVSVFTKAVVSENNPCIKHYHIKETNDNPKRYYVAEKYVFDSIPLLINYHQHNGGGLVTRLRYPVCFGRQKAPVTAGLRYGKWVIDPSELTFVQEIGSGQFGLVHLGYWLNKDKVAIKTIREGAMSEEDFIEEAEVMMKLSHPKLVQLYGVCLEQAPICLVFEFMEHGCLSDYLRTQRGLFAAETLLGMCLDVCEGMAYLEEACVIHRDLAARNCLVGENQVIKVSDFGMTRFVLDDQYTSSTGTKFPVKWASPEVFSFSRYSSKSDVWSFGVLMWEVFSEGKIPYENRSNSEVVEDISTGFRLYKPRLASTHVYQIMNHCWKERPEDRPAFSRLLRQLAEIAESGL

In the case of `CC(C)C(C)CNCc1ccc2c(c1)[nH]/c(=N\C(=O)c1ccc(C3=CN=NC3)s1)n2CC(C)(C)O` (stereo not drawn) [BI 10N], in experiment [1] (PTEN/BRAF GEMM, FIG. 7B), the “tumor growth compared with AZD6244 and PLX4032” value is “performs better in vivo than MEK inhibitor AZD6244 (selumentinib) and V600E BRAF inhibitor PLX4032 (vemurafenib)”. For the same compound, in experiment [1] (PTEN/BRAF mice, 15 mg per kg, compared to the no treatment group), the progression of tumors result is “profoundly retarded the progression of tumors”. The effect on proliferation result in experiment [2] was “decreased similarly to the ITKHI cell lines”. In addition, in experiment [3], the “effect on doubling time” value is on record as “did not increase their doubling time”. The “concentration at which formation of the phosphorylated (active) form of ITK is inhibited” value in experiment [4] was ≥ 25 nM. For the same compound, the “concentration required for smaller changes in migration” value in experiment [5], in experiment [6] and in experiment [7] was ≥ 150 nM each time. For the same compound, the effect on migration result in experiment [5] (10-25 nM) is listed as “unaffected”; in experiment [6] (10-25 nM) it was “do not decrease”; in experiment [7] (10-25 nM), “unaffected”. In experiment [8], the decrease in migration entry is “about 50%”.
